Laboratory results: publication PMC12670164, “In vitro and clinical data demonstrate negligible risk of drug–drug interactions with opelconazole, a novel inhaled antifungal agent” (Journal of Antimicrobial Chemotherapy, 2025)

Assays:
CYP3A4 = CYP3A4 (Homo sapiens, UniProt P08684); test: clinical
Procedure: The study documents were approved by an Independent Ethics Committee. Study participants provided written informed consent prior to any study procedures.
Screening occurred within 28 days prior to the first dosing day (Figure 1). […] On Days 1 and 15, participants received oral midazolam 7.5 mg and oral caffeine 180 mg together after food ingestion.
Morning doses of opelconazole on Day 2 and Day 15 were taken 30 min after food ingestion.
Primary PK parameters assessed for midazolam and its metabolites (1-OH-midazolam, 4-OH-midazolam), caffeine and opelconazole were Cmax and AUC, from time zero to t, where t is the time of the last quantifiable concentration (AUC(0−t); i.e., AUC(0−12) and AUC(0−24)). Secondary PK parameters were AUC(0−∞), Tmax, apparent t1/2 and accumulation ratio (RO) of opelconazole only.
For caffeine, midazolam and the metabolites of midazolam, the geometric mean ratio (GMR) of Day 15 estimates to those obtained on Day 1 was derived by fitting a linear mixed effect model with the log of the parameter as the response, visit as the fixed effect, and participant as the random effect.

CYP1A2 [1] = test: clinical; conditions: both, human, plasma, po, 180 mg, probe caffeine
Description: To adjust for any residual caffeine in plasma samples, the estimated contribution of residual, pre-dose caffeine was subtracted from the measured caffeine concentration to produce an ‘adjusted concentration.’ Residual caffeine concentrations were estimated from the baseline concentration and the measured elimination rate in individual participants.

CYP1A2 [2] = test: CYP induction, mRNA endpoint, cryopreserved human hepatocytes; conditions: human, 72 h
Procedure: The potential for opelconazole to act as an inducer of CYP isoforms CYP1A2, CYP2B6 and CYP3A4 was assessed in vitro using an mRNA endpoint across three donors in cryopreserved human hepatocytes. A drug is interpreted as an inducer if: (1) it increases mRNA expression of a CYP enzyme in a concentration-dependent manner and (2) the fold change of CYP mRNA expression relative to vehicle control is ≥2-fold at the drug’s expected hepatic concentrations.[23]
A cytotoxicity assessment using MTT was performed in one of the three donors used for the induction studies prior to dosing.

[3] = Day 1, oral midazolam 7.5 mg without opelconazole
[4] = Day 15, oral midazolam 7.5 mg after 14 days inhaled opelconazole 14.8 mg twice daily
[5] = both, human, in vivo, po, 7.5 mg

Chain of CYP3A4 (P08684 whole entry): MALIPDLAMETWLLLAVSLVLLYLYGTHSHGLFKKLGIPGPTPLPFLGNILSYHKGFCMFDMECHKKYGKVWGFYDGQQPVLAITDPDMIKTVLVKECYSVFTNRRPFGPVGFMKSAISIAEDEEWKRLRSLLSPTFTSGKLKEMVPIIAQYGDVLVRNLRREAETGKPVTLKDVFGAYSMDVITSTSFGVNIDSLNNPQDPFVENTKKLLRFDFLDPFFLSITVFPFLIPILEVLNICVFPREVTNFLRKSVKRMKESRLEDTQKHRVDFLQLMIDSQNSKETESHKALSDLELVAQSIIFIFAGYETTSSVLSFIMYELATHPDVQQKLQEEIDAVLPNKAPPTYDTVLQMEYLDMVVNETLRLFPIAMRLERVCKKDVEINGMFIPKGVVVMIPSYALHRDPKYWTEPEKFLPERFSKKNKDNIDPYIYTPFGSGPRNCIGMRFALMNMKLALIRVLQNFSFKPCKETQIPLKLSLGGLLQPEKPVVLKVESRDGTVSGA

Row | Compound | AUC(0–24h), geometric mean (CYP3A4; [3]) [ng·h/mL] | Cmax, geometric mean (CYP3A4; [3]) [ng/mL] | AUC(0–24h), geometric mean (CYP3A4; [4]) [ng·h/mL] | Cmax, geometric mean (CYP3A4; [4]) [ng/mL] | other results
1 | OCc1ncc2n1-c1ccc(Cl)cc1C(c1ccccc1F)=NC2 [1-OH-Midazolam, 1-OH-midazolam] | 72.8 | 16.7 | 60.9 | 13.4 | 
2 | Cc1ncc2n1-c1ccc(Cl)cc1C(c1ccccc1F)=NC2O (stereo not shown) [4-OH-Midazolam, 4-OH-midazolam] | 8.92 | 1.97 | 8.70 | 1.78 | 
3 | Cn1c(=O)c2c(ncn2C)n(C)c1=O [Caffeine, caffeine] |  |  |  |  | AUC(0-t) (CYP1A2 [1]): 33200 ng·h/mL; Cmax (CYP1A2 [1]): 3280 ng/mL
4 | Cc1ncc2n1-c1ccc(Cl)cc1C(c1ccccc1F)=NC2 [Midazolam, midazolam, reference compound] |  |  |  |  | AUC(0-t) (CYP3A4; [5]): 166 ng·h/mL; Cmax (CYP3A4; [5]): 35.1 ng/mL
5 | COc1ccc2[nH]c([S+]([O-])Cc3ncc(C)c(OC)c3C)nc2c1 (stereo not shown) [omeprazole, reference compound] |  |  |  |  | induction outcome of positive control relative to opelconazole (CYP1A2 [2]): > 30 fold
